Results on one compound are retold here after patent US9957273B2, “5-substituted 7- [4-(2-pyridyl)phenylmethylamino] -3-isopropylpyrazolo4,3-D]pyrimidine derivatives, use thereof as medicaments, and pharmaceutical compositions” (USTAV EXPERIMENTALNI BOTANIKY AV CR, V.V.I., priority 2015, dated 2018).

Type in all cases: cell-based
Assay [1] deals with caspases 3 and 7 in HCT116 cells. Description: Caspase-3/7 activity assay in HCT116 cells. The conditions noted are these: 24 h, FIG. 3. The protocol:
Measurement of proapoptotic properties of new compounds was based on quantification of enzymatic activities of caspases-3/7. Activity of cellular caspase-3/7 was measured according to Carrasco et al., 2003, BioTechniques, 34(5): 1064-67. Briefly, the cells were incubated in a 96-well plate overnight. Next day, the compounds in appropriate concentrations were added and cells were incubated for 24 hours. After incubation, 3× caspase-3/7 assay buffer (150 mM HEPES pH 7.4, 450 mM NaCl, 150 mM KCl, 30 mM MgCl2, 1.2 mM EGTA, 1.5% Nonidet P40, 0.3% CHAPS, 30% sucrose, 30 mM DTT, 3 mM PMSF) with 150 μM Ac-DEVD-AMC as a substrate (Sigma-Aldrich) was added to the wells and plates were incubated at 37° C. […]. The caspase activity was measured using Fluoroskan Ascent microplate reader (Labsystems) at 346 nm/442 nm (excitation/emission).

Assay [2] relates to THP1 (human monocytic cell line). Description: MTT cytotoxicity assay, leukemic cell line THP1. The conditions noted are these: Homo sapiens, THP-1, 72 h, three days. In a few lines:
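Seed 2000-5000 cells/well; let settle at least 8 h; add compound at 100 to 0.01 μM, triplicates; incubate three days at 37 °C, 5% CO2; add MTT, replace medium with DMSO after 5 h; read at 620 nm.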
On the technique in general: Formazan colour is commonly taken as a measure of viable cells.

The test system of assay [3] is HUVECs (human umbilical vein endothelial cells). Briefly: HUVEC migration (scratch) assay. To be noted: 16 h, read-out: Inhibition of migration (EC50). The protocol: To verify that novel compounds have anti-vascularisation properties, we analyzed their influence on the proliferation and migration of HUVECs. HUVECs (human umbilical vein endothelial cells) were purchased from Promocell (Heidelberg, Germany) and cultured in endothelial cell growth medium (ECGM, Promocell, Heidelberg, Germany) containing 10% FCS (Biochrom, Berlin, Germany). Experiments were performed using cells at passage 3.
For migration assay, confluent HUVECs were scratched with a pipette tip and immediately treated with either starvation medium M199 (serum-free, negative control; PAN Biotech) or full endothelial cell growth medium (positive control). After 16 h, cells were fixed with 3% formaldehyde and images were taken using the TILLvisON system (Lochham, Germany) connected to an Axiovert 200 microscope (Zeiss, Germany). Evaluation of pictures was made by S.CO LifeScience (Garching, Germany). Migration was quantified as the ratio of the area covered with cells and the area of the cell free wound.

The next assay concerns Mcl-1. Briefly: Immunoblotting of apoptotic markers in HCT116 cells: Mcl-1. To be noted: 24 hours, FIG. 4. The protocol:
Effect of novel compounds on apoptosis was confirmed by immunoblotting analysis of selected apoptotic proteins. For immunoblotting, cell were harvested, washed three times with ice-cold PBS and lysed in a buffer (50 mM Tris, pH 7.4, 250 mM NaCl, 5 mM EDTA, 50 mM NaF, 1 mM Na3VO4, 1% Nonidet P40) containing mixture of protease and phosphatase inhibitors (Sigma-Aldrich). 20 μg of total proteins were separated by SDS-polyacrylamide gel electrophoresis (SDS-PAGE) and transferred onto nitrocellulose membranes. Membranes were blocked in 5% milk and 0.1% Tween 20 in PBS and probed overnight with specific antibodies. Specific antibodies were purchased from SigmaAldrich (anti a-tubulin, clone DM1A), Santa Cruz Biotechnology (anti-Mcl-1, clone S-19; anti-PARP, clone F-2; anti-Mdm-2, clone SMP14; anti-Bcl-2), DAKO Cytomation Cell Signaling (anti-PUMA) or were a generous gift from Dr. B. Vojtesek (anti-p53, clone DO-1). All primary antibodies were diluted in PBS containing 5% powdered milk; 0.1% Tween 20. Peroxidase conjugated rabbit anti-mouse immunoglobulin or porcine anti-rabbit immunoglobulin antisera (DAKO) were used as the secondary antibodies and visualised with ECL reagents (GE-Healthcare Life Sciences).
A general note: Immunoblotting shows a protein as a band on a membrane.

Each structure is given as a SMILES string.

Usually IC50 stands for the concentration that inhibits the measured activity by half. A high value points to lower potency. As to `CC(C)c1[nH]nc2c(NCc3ccc(-c4ccccn4)cc3)nc(NCC(O)CN)nc12` (stereo not shown) [Compound 45], in assay [1], the “caspase-3/7 activity in HCT116 cells” value is recorded as “potent dose-dependent activation of the caspases in nanomolar concentrations”. Besides, in assay [2], inhibition was half-maximal at 0.49 µM (IC50). Also, in assay [3], the EC50 was 500 nM. The “level of anti-apoptotic protein Mcl-1 (immunoblot)” value in the assay with Mcl-1 is “dose-dependent decrease”.
